Test results: the supplement of paper PMC11781733
Structures can show the parent of a compound that is named as a salt.

Assays:
Conditions in all cases: exposure time: 15 min to 3 h acute
Dugesia japonica [1] = test: any abnormal body shape incidence (% planarians (vehicle-normalised)); higher = higher incidence or increase relative to vehicle control
Description: (§1)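 Adult asexual Dugesia japonica planarians (1 per well, 48-well plate, n=24 over technical triplicates) were exposed acutely (15 min to 3 h) to each compound (0.5% DMSO or water vehicle) and screened on a robotic platform for crawl-out, stickiness, body shape, phototaxis, noxious-heat scrunching and locomotion endpoints. Binary endpoints are incidence rate x100 normalised to in-plate vehicle controls. Continuous endpoints are the median response normalised to the plate vehicle median, as % change or difference. Negative incidences after vehicle subtraction were set to 0.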

Dugesia japonica [2] = test: stickiness incidence (% planarians (vehicle-normalised)); higher = higher incidence or increase relative to vehicle control
Description: as §1

Dugesia japonica [3] = test: hyperkinesis incidence (% planarians (vehicle-normalised)); higher = higher incidence or increase relative to vehicle control
Description: as §1

Dugesia japonica [4] = test: loss of heat-induced scrunching incidence (% planarians (vehicle-normalised)); higher = higher incidence or increase relative to vehicle control
Description: as §1

Dugesia japonica [5] = test: corkscrew incidence (% planarians (vehicle-normalised)); higher = higher incidence or increase relative to vehicle control
Description: as §1

Dugesia japonica [6] = test: speed second 30 s blue light vs vehicle (% change vs vehicle); higher = higher incidence or increase relative to vehicle control
Description: as §1

Dugesia japonica [7] = test: noxious heat displacement strength vs vehicle (% change vs vehicle); higher = higher incidence or increase relative to vehicle control
Description: as §1

Dugesia japonica [8] = test: C-shape incidence (% planarians (vehicle-normalised)); higher = higher incidence or increase relative to vehicle control
Description: as §1

Dugesia japonica [9] = test: speed in dark vs vehicle (% change vs vehicle); higher = higher incidence or increase relative to vehicle control
Description: as §1

Dugesia japonica [10] = test: resting fraction in blue light vs vehicle (difference in fraction x100 vs vehicle); higher = higher incidence or increase relative to vehicle control
Description: as §1

Dugesia japonica [11] = test: pharynx extrusion incidence (% planarians (vehicle-normalised)); higher = higher incidence or increase relative to vehicle control
Description: as §1

Dugesia japonica [12] = test: anxiety (time in outer well region) vs vehicle (% change vs vehicle); higher = higher incidence or increase relative to vehicle control
Description: as §1

Dugesia japonica [13] = test: crawl-out incidence (% planarians); higher = higher incidence or increase relative to vehicle control
Description: as §1, with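 “x100.” for “x100 normalised to in-plate vehicle controls.”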

Dugesia japonica [14] = test: contracted body shape incidence (% planarians (vehicle-normalised)); higher = higher incidence or increase relative to vehicle control
Description: as §1

Dugesia japonica [15] = test: total locomotor bursts minus vehicle (bursts difference vs vehicle); higher = higher incidence or increase relative to vehicle control
Description: as §1

Dugesia japonica [16] = test: resting fraction in dark vs vehicle (difference in fraction x100 vs vehicle); higher = higher incidence or increase relative to vehicle control
Description: as §1

Dugesia japonica [17] = test: loss of phototaxis incidence (% planarians (vehicle-normalised)); higher = higher incidence or increase relative to vehicle control
Description: as §1

Dugesia japonica [18] = test: speed first 30 s blue light vs vehicle (% change vs vehicle); higher = higher incidence or increase relative to vehicle control
Description: as §1

Structure (SMILES) | any abnormal body shape incidence (Dugesia japonica [1]) | stickiness incidence (Dugesia japonica [2]) | hyperkinesis incidence (Dugesia japonica [3]) | loss of heat-induced scrunching incidence (Dugesia japonica [4]) | corkscrew incidence (Dugesia japonica [5]) | speed second 30 s blue light (Dugesia japonica [6]) | noxious heat displacement strength (Dugesia japonica [7]) | C-shape incidence (Dugesia japonica [8]) | speed in dark (Dugesia japonica [9]) | resting fraction in blue light (Dugesia japonica [10]) | pharynx extrusion incidence (Dugesia japonica [11]) | anxiety (Dugesia japonica [12]) | crawl-out incidence (Dugesia japonica [13]) | contracted body shape incidence (Dugesia japonica [14]) | total locomotor bursts minus vehicle (Dugesia japonica [15]) | resting fraction in dark (Dugesia japonica [16]) | loss of phototaxis incidence (Dugesia japonica [17]) | speed first 30 s blue light (Dugesia japonica [18])
O=C1CCc2ccc(OCCCCN3CCN(c4cccc(Cl)c4Cl)CC3)cc2N1 [aripiprazole] (100 µM) | 65.2 | ≤ 0 | 17.4 | 78.3 | 0 | -88.8 | -49 | 60.9 | -64.8 | 69.8 | 0 | -67.2 | 4.17 | 0 | 55 | 56.9 | 47.8 | -88.7
O=C1CC2(CCCC2)CC(=O)N1CCCCN1CCN(c2ncccn2)CC1 [buspirone] (3.16 µM) | 8.33 | 4.17 | 8.33 | ≤ 0 | 0 | -34.4 | -34.1 | 0 | 8.61 | 8.98 | 0 | -2.65 | 0 | 0 | 4.25 | 4.15 | 16.7 | -21.3
CN1CCN(C2=Nc3cc(Cl)ccc3Nc3ccccc32)CC1 [clozapine] (100 µM) | 81 | ≤ 0 | 23.8 | 79.2 | 9.52 | -96.2 | -29.6 | 57.1 | -79.5 | 87.8 | 0 | -11.2 | 0 | 28.6 | -4.5 | 77.6 | 62.5 | -96.9
O=C(O)C(=O)O [oxalic acid] (100 µM) | 12.5 | ≤ 0 | 12.5 | 8.33 | 0 | -8.31 | -11.5 | 0 | -6.93 | 1.86 | 0 | 24.9 | 0 | 0 | 6.5 | -1.66 | ≤ 0 | -25.2
CN(C)CCC[C@@]1(c2ccc(F)cc2)OCc2cc(C#N)ccc21 [escitalopram] (31.6 µM) | 0 | 8.33 | 0 | 37.5 | 0 | 4.85 | -31.5 | 0 | -4.33 | 0 | 0 | 3.28 | 0 | 4.17 | -1.25 | -4.32 | 4.17 | 12.5
O=C(CCCN1CC=C(n2c(=O)[nH]c3ccccc32)CC1)c1ccc(F)cc1 [droperidol] (3.16 µM) | 50 | 8.33 | 37.5 | 66.7 | 8.33 | -89.6 | -42.7 | 12.5 | -77.5 | 66.1 | 0 | -4.16 | 0 | 16.7 | 18.8 | 62.6 | 45.8 | -90.1
O=C(O)C(=O)O [oxalic acid] (1000 µM) | 62.5 | ≤ 0 | 0 | 83.3 | 0 | -90.4 | -57 | 41.7 | -53.2 | 63.9 | 0 | -19.2 | 0 | 50 | 4 | 60.5 | 54.2 | -88.1
CN(C)CCCN1c2ccccc2CCc2ccccc21 [imipramine] (10 µM) | 0 | 16.7 | 0 | ≤ 0 | 0 | -51.7 | -29.7 | 0 | -48.9 | 3.16 | 0 | 0.22 | 0 | 0 | 10.8 | 4.41 | 12.5 | -47.9
CN(C)CCCC1(c2ccc(F)cc2)OCc2cc(C#N)ccc21 (stereo not given) [citalopram hydrobromide] (316 µM) | 13 | 8.7 | 13 | 13 | 0 | 6.83 | -25.1 | 0 | 10.9 | 0.559 | 0 | 12.2 | 0 | 0 | -3.5 | 1.16 | 4.35 | 1.47
O=C(CCCN1CCC(O)(c2ccc(Br)cc2)CC1)c1ccc(F)cc1 [bromperidol] (100 µM) | 57.1 | ≤ 0 | 42.9 | 28.6 | 23.8 | -63.4 | -48 | 4.76 | -39.1 | 40.4 | 0 | 21.1 | 25 | 4.76 | 17 | 43.4 | ≤ 0 | -53.3
CNCC[C@H](Oc1cccc2ccccc12)c1cccs1 [s-duloxetine] (100 µM) | 82.6 | ≤ 0 | 0 | 73.9 | 0 | -87.5 | -66.8 | 13 | -50.6 | 72.3 | 65.2 | -57.1 | 4.17 | 34.8 | -4.5 | 55.5 | 56.5 | -84
CN1C(=O)CN=C(c2ccccc2)c2cc(Cl)ccc21 [diazepam] (100 µM) | 100 | ≤ 0 | 16.7 | 37.5 | 20.8 | -87.6 | -45.6 | 62.5 | -72.2 | 50.2 | 37.5 | -36.9 | 0 | 12.5 | 55 | 48.6 | 29.2 | -84.2
CN(C)CCCC1(c2ccc(F)cc2)OCc2cc(C#N)ccc21 (stereo not given) [citalopram hydrobromide] (100 µM) | 8.33 | 8.33 | 8.33 | 25 | 0 | -0.52 | -22.5 | 0 | -4.27 | 0 | 0 | 15.3 | 0 | 0 | 1.5 | 1.35 | ≤ 0 | -6.21
CNCCC(Oc1ccc(C(F)(F)F)cc1)c1ccccc1 (stereo not given) [fluoxetine hydrochloride] (3.16 µM) | 0 | ≤ 0 | 0 | 16.7 | 0 | -5.1 | -9.15 | 0 | -5.68 | -1.89 | 0 | 8.3 | 0 | 0 | -7.5 | -6.73 | ≤ 0 | -11.9
CCCCNc1c(C(=O)OCC)c(C)nc2c1cnn2CC [tracazolate hydrochloride] (100 µM) | 91.7 | ≤ 0 | 70.8 | 29.2 | 12.5 | -91.7 | -63.6 | 87.5 | -83.4 | 59 | 8.33 | -79.8 | 0 | 4.17 | 81.5 | 61.7 | 12.5 | -91.5
